Holding throughout (assay type): cell-based
One test deals with T1, CDK9 (Homo sapiens, UniProt P50750).
T1 construct: host or cells: HEK293-CDK9-Hibit
In words: HiBit Assay Protocol for CDK9 (HIBIT protein quantification, degradation). The following applies: HEK293-CDK9-Hibit cells, compound treatment for 6 hours; for Dmax: read-out: CDK9 HIBIT Protein Quantification Maximum; for DC50: ABS DC50. The procedure, abridged: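 HEK293 cells carrying HiBiT-tagged CDK9 treated 6 h with compounds in a 3-fold, 10-point dilution series. CDK9 level read by lytic Nano-Glo HiBiT/LgBiT luminescence and normalized to 0.1% DMSO (high) and medium-only (low) controls. DC50 from curve fitting.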
A general note: The HiBiT peptide binds its large partner to form an active luciferase.

The next test has as its target T2, CDK2 (Homo sapiens, UniProt P24941).
T2 construct: host or cells: HEK293-CDK2-Hibit
In words: HiBit Assay Protocol for CDK2 (HIBIT protein quantification, degradation). The following applies: HEK293-CDK2-Hibit cells, compound treatment for 6 hours; for DC50: ABS DC50. The procedure, abridged:
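HEK293 cells expressing HiBiT-tagged CDK2 were seeded overnight, then treated 6 h with a 3-fold, 10-point compound dilution series. CDK2 levels were read as luminescence after lytic HiBiT/LgBiT detection, normalised to DMSO-only and medium-only controls, and DC50 derived by curve fitting.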

Another test concerns the target T3, CCNE1 (Homo sapiens, UniProt P24864).
T3 construct: host or cells: HEK293-CCNE1-Hibit
Briefly: HiBit Assay Protocol for CCNE1 (HIBIT protein quantification, degradation). The following applies: HEK293-CCNE1-Hibit cells, compound treatment for 6 hours. The procedure, abridged: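 HEK293 cells expressing HiBiT-tagged CCNE1 were seeded overnight, then treated 6 h with a 3-fold, 10-point compound dilution series. HiBiT levels were read by lytic LgBiT luminescence and normalised to DMSO-only (high) and medium-only (low) controls. DC50 was derived by curve fitting.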

Where two headings read alike, the source gives them in different places.

T1 sequence (P50750 whole entry): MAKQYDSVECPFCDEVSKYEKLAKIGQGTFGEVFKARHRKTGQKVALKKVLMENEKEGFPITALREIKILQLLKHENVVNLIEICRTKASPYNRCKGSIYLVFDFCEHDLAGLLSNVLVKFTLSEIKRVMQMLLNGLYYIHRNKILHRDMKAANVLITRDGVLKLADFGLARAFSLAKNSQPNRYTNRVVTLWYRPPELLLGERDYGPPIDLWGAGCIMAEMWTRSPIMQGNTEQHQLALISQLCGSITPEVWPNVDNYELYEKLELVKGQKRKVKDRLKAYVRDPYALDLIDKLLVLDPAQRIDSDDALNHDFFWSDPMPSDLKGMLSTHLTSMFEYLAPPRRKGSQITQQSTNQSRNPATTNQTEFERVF
T3 sequence (P24864 whole entry): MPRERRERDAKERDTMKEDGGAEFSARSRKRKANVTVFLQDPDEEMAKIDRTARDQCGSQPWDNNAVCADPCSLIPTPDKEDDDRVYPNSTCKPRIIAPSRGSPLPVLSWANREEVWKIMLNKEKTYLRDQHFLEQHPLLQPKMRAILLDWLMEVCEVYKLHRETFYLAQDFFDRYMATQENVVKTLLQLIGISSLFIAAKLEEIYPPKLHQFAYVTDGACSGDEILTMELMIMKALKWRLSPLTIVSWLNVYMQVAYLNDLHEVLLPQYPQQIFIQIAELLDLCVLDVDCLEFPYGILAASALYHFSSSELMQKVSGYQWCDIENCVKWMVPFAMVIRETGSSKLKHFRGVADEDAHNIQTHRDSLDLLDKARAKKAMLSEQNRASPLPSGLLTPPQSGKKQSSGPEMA

Turning to `Cn1nc(N2CCC(=O)NC2=O)c2ccc(C3CCN(Cc4ccnc(S(=O)(=O)N5CCC(Nc6ncc7c(n6)N([C@@H]6CCC[C@@H](O)C6)C(=O)C76CC6)CC5)c4)CC3)cc21` [Compound 165, 1-[6-(1-{[2-(4-{7′-[(1R,3R)-3-Hydroxycyclohexyl]-6′-oxospiro[cyclopropane-1,5′-pyrrolo[2,3-d]pyrimidin]-2′-ylamino}piperidin-1-ylsulfonyl)pyridin-4-yl]methyl}piperidin-4-yl)-1-methylindazol-3-yl]-1,3-diazinane-2,4-dione], the Dmax at CDK9 (6 h) came to 13%. For the same compound, on CDK2, the “CDK2 HIBIT Protein Quantification Maximum” value worked out at 78% and half-maximal degradation (DC50) was put at 10.1 nM. In addition, the “CCNE1 HIBIT Protein Quantification Maximum” value on CCNE1 stood at 44%.

Consider `CC1CCCC1N1C(=O)C2(CC2)c2cnc(NC3CCN(S(=O)(=O)N4CCN(C(=O)CCCCCCCc5cccc6c5n(C)c(=O)n6C5CCC(=O)NC5=O)CC4)CC3)nc21` (stereo not drawn) [Compound 46], for which, on CDK9 (6 h), the Dmax amounted to 44%. In addition, at CDK2, the “CDK2 HIBIT Protein Quantification Maximum” value was found to be 74% and half-maximal degradation (DC50) was put at 5 nM. Further, the “CCNE1 HIBIT Protein Quantification Maximum” value on CCNE1 came out at 35%.

Turning to `CC1CCCC1N1C(=O)C2(CC2)c2cnc(NC3CCN(S(=O)(=O)N4CC5(CN(C(=O)CCCCc6ccc7c(c6)n(C)c(=O)n7C6CCC(=O)NC6=O)C5)C4)CC3)nc21` (stereo not drawn) [Compound 108], the Dmax on CDK9 (6 h) amounted to 4%. For the same compound, the “CDK2 HIBIT Protein Quantification Maximum” value at CDK2 amounted to 42%. Besides, the “CCNE1 HIBIT Protein Quantification Maximum” value on CCNE1 was found to be 16%.

On to `CC1CCCC1N1C(=O)C2(CC2)c2cnc(NC3CCN(S(=O)(=O)N4CC5C4CCN5C(=O)CCCc4ccc5c(c4)n(C)c(=O)n5C4CCC(=O)NC4=O)CC3)nc21` (stereo not drawn) [Compound 69], for which the Dmax on CDK9 (6 h) worked out at 8%. Moreover, the “CDK2 HIBIT Protein Quantification Maximum” value at CDK2 was 13%. Also, the “CCNE1 HIBIT Protein Quantification Maximum” value on CCNE1 turned out to be 8%.

As for `CC1CCCC1N1C(=O)C2(CC2)c2cnc(NC3CCN(S(=O)(=O)C4CCCN(C(=O)CCCCCCCc5ccc6c(c5)n(C)c(=O)n6C5CCC(=O)NC5=O)C4)CC3)nc21` (stereo not drawn) [Compound 85], the Dmax on CDK9 (6 h) amounted to 14%. Moreover, on CDK2, the “CDK2 HIBIT Protein Quantification Maximum” value is listed as 17%. Further, the “CCNE1 HIBIT Protein Quantification Maximum” value at CCNE1 is listed as 41%.

In the case of `CC1CCCC1N1C(=O)C2(CC2)c2cnc(NC3CCN(S(=O)(=O)N4CC5(CN(C(=O)CCCc6cccc7c6n(C)c(=O)n7C6CCC(=O)NC6=O)C5)C4)CC3)nc21` (stereo not drawn) [Compound 29], at CDK9 (6 h), the Dmax worked out at 57%. Besides, the DC50 – broadly, the concentration giving 50% degradation – turned out to be 95.8 nM on CDK9 and 35 nM on CDK2. Further, on CDK2, the “CDK2 HIBIT Protein Quantification Maximum” value was found to be 76%. For the same compound, on CCNE1, the “CCNE1 HIBIT Protein Quantification Maximum” value came out at 47%.

For the compound `CC1CCCC1N1C(=O)C2(CC2)c2cnc(NC3CCN(S(=O)(=O)N4CC5(CCCN(C(=O)CCc6cccc7c6n(C)c(=O)n7C6CCC(=O)NC6=O)C5)C4)CC3)nc21` (stereo not drawn) [Compound 18], the Dmax on CDK9 (6 h) came to 5%. Besides, on CDK2, the “CDK2 HIBIT Protein Quantification Maximum” value is recorded as 63% and half-maximal degradation (DC50) was put at 12 nM. Further, on CCNE1, the “CCNE1 HIBIT Protein Quantification Maximum” value worked out at 20%.

`CC1CCCC1N1C(=O)C2(CC2)c2cnc(NC3CCN(S(=O)(=O)N4CC5(CCN(C(=O)CCCCCCCCCc6cccc7c6n(C)c(=O)n7C6CCC(=O)NC6=O)CC5)C4)CC3)nc21` (stereo not drawn) [Compound 51]: the Dmax on CDK9 (6 h) stood at 41%. Also, at CDK2, the “CDK2 HIBIT Protein Quantification Maximum” value came out at 56% and it took 53 nM to reach half-maximal degradation (DC50). The “CCNE1 HIBIT Protein Quantification Maximum” value at CCNE1 is recorded as 40%.

For `C[C@@H]1CN(S(=O)(=O)c2cccc(CN3CCC(c4ccc5c(N6CCC(=O)NC6=O)nn(C)c5c4)CC3)c2)CC[C@@H]1Nc1ncc2c(n1)N([C@@H]1CCC[C@@H](O)C1)C(=O)C21CC1` [Compound 153, 1-{6-[1-({3-[(3R,4S)-4-{7′-[(1R,3R)-3-Hydroxycyclohexyl]-6′-oxospiro[cyclopropane-1,5′-pyrrolo[2,3-d]pyrimidin]-2′-ylamino}-3-methylpiperidin-1-ylsulfonyl]phenyl}methyl)piperidin-4-yl]-1-methylindazol-3-yl}-1,3-diazinane-2,4-dione], at CDK9 (6 h), the Dmax worked out at 17%. At CDK2, the “CDK2 HIBIT Protein Quantification Maximum” value is reported as 57% and the DC50 is 9.42 nM. In addition, the “CCNE1 HIBIT Protein Quantification Maximum” value at CCNE1 was found to be 28%.

Regarding `O=C1CCC(N2Cc3cc(N4CCC(CN5CCN(c6cccc(S(=O)(=O)N7CCC(Nc8ncc9c(n8)N([C@@H]8CCC[C@@H](O)C8)C(=O)C98CC8)CC7)c6)CC5)CC4)ccc3C2=O)C(=O)N1` (stereo partly drawn) [Compound 119, 3-{5-[4-({4-[3-(4-{7′-[(1R,3R)-3-hydroxycyclohexyl]-6′-oxospiro[cyclopropane-1,5′-pyrrolo [2,3-d]pyrimidin]-2′-ylamino}piperidin-1-ylsulfonyl)phenyl]piperazin-1-yl}methyl)piperidin-1-yl]-1-oxo-3H-isoindol-2-yl}piperidine-2,6-dione], at CDK9, the Dmax was 25%. Further, on CDK2, the “CDK2 HIBIT Protein Quantification Maximum” value is recorded as 70% and it took 3 nM to reach half-maximal degradation (DC50). At CCNE1, the “CCNE1 HIBIT Protein Quantification Maximum” value is given as 22%.

Turning to `CC1CCCC1N1C(=O)C2(CC2)c2cnc(NC3CCN(S(=O)(=O)N4CCC5(CCN(C(=O)CCCc6ccc7c(c6)n(C)c(=O)n7C6CCC(=O)NC6=O)C5)C4)CC3)nc21` (stereo not drawn) [Compound 129], on CDK9 (6 h), the Dmax is 17%. Moreover, at CDK2, the “CDK2 HIBIT Protein Quantification Maximum” value is reported as 51% and half-maximal degradation (DC50) was put at 42 nM. At CCNE1, the “CCNE1 HIBIT Protein Quantification Maximum” value is given as 18%.

Regarding `CC1CCCC1N1C(=O)C2(CC2)c2cnc(NC3CCN(S(=O)(=O)N4CC5CN(C(=O)CCc6ccc7c(c6)n(C)c(=O)n7C6CCC(=O)NC6=O)CC5C4)CC3)nc21` (stereo not drawn) [Compound 55], the Dmax at CDK9 (6 h) was 8%. For the same compound, at CDK2, the “CDK2 HIBIT Protein Quantification Maximum” value was 25%. Moreover, the “CCNE1 HIBIT Protein Quantification Maximum” value on CCNE1 is given as 13%.

Turning to `CC1CCCC1N1C(=O)C2(CC2)c2cnc(NC3CCN(S(=O)(=O)N4CCCC45CCN(C(=O)CCCc4ccc6c(c4)n(C)c(=O)n6C4CCC(=O)NC4=O)C5)CC3)nc21` (stereo not drawn) [Compound 63], at CDK9 (6 h), the Dmax came out at 14%. Besides, on CDK2, the “CDK2 HIBIT Protein Quantification Maximum” value stood at 15%. The “CCNE1 HIBIT Protein Quantification Maximum” value at CCNE1 stood at 2%.

With `CC1CCCC1N1C(=O)C2(CC2)c2cnc(NC3CCN(S(=O)(=O)N4CC5(CCCN(C(=O)CCCc6ccc7c(c6)n(C)c(=O)n7C6CCC(=O)NC6=O)C5)C4)CC3)nc21` (stereo not drawn) [Compound 66], at CDK9 (6 h), the Dmax came out at 8%. For the same compound, on CDK2, the “CDK2 HIBIT Protein Quantification Maximum” value worked out at 39%. The “CCNE1 HIBIT Protein Quantification Maximum” value at CCNE1 was 14%.

For `CC1CCCC1N1C(=O)C2(CC2)c2cnc(NC3CCN(S(=O)(=O)N4CC5(CCN(C(=O)CCc6cccc7c6n(C)c(=O)n7C6CCC(=O)NC6=O)CC5)C4)CC3)nc21` (stereo not drawn) [Compound 20], at CDK9 (6 h), the Dmax stood at 71%. The DC50 on CDK9 was found to be 86.3 nM. In addition, the “CDK2 HIBIT Protein Quantification Maximum” value on CDK2 was 46%. In addition, the “CCNE1 HIBIT Protein Quantification Maximum” value on CCNE1 stood at 29%.

Consider `Cn1nc(N2CCC(=O)NC2=O)c2ccc(C3CCN(CC4CCCN(S(=O)(=O)N5CCC(Nc6ncc7c(n6)N([C@@H]6CCC[C@@H](O)C6)C(=O)C76CC6)CC5)C4)CC3)cc21` (stereo partly drawn) [Compound 186, 1-[6-(1-{[1-(4-{7′-[(1R,3R)-3-Hydroxycyclohexyl]-6′-oxospiro[cyclopropane-1,5′-pyrrolo[2,3-d]pyrimidin]-2′-ylamino}piperidin-1-ylsulfonyl)piperidin-3-yl]methyl}piperidin-4-yl)-1-methylindazol-3-yl]-1,3-diazinane-2,4-dione], for which the Dmax on CDK9 (6 h) is 27%. Also, at CDK2, the “CDK2 HIBIT Protein Quantification Maximum” value was 62% and it took 2.82 nM to reach half-maximal degradation (DC50). Besides, the “CCNE1 HIBIT Protein Quantification Maximum” value on CCNE1 amounted to 43%.

For the compound `O=C1CCC(N2Cc3cc(N4CCN(C5CN(c6cccc(S(=O)(=O)N7CCC(Nc8ncc9c(n8)N([C@H]8CCC[C@H](O)C8)C(=O)C98CC8)CC7)c6)C5)CC4)ccc3C2=O)C(=O)N1` (stereo in doubt) [Compound 133, 3-[5-(4-{1-[3-(4-{7′-[(1S,3S)-3-Hydroxycyclohexyl]-6′-oxospiro[cyclopropane-1,5′-pyrrolo[2,3-d]pyrimidin]-2′-ylamino}piperidin-1-ylsulfonyl)phenyl]azetidin-3-yl}piperazin-1-yl)-1-oxo-3H-isoindol-2-yl]piperidine-2,6-dione], the Dmax on CDK9 (6 h) is 14%. Also, on CDK2, the “CDK2 HIBIT Protein Quantification Maximum” value was determined as 61% and the DC50 was 9.23 nM. Also, at CCNE1, the “CCNE1 HIBIT Protein Quantification Maximum” value stood at 26%.

`CC1CCCC1N1C(=O)C2(CC2)c2cnc(NC3CCN(S(=O)(=O)N4CCC5(CCCN5C(=O)CCCCc5ccc6c(c5)n(C)c(=O)n6C5CCC(=O)NC5=O)C4)CC3)nc21` (stereo not drawn) [Compound 105]: the Dmax on CDK9 (6 h) amounted to 36%. Besides, the “CDK2 HIBIT Protein Quantification Maximum” value on CDK2 amounted to 40%. Besides, the “CCNE1 HIBIT Protein Quantification Maximum” value at CCNE1 stood at 15%.

In the case of `CC1CCCC1N1C(=O)C2(CC2)c2cnc(NC3CCN(S(=O)(=O)N4CC5(CCCN(C(=O)CCCCCCCCCc6cccc7c6n(C)c(=O)n7C6CCC(=O)NC6=O)C5)C4)CC3)nc21` (stereo not drawn) [Compound 50], the Dmax on CDK9 (6 h) came to 17%. Also, the “CDK2 HIBIT Protein Quantification Maximum” value on CDK2 is 37%. In addition, on CCNE1, the “CCNE1 HIBIT Protein Quantification Maximum” value amounted to 16%.

Regarding `CC1CCCC1N1C(=O)C2(CC2)c2cnc(NC3CCN(S(=O)(=O)N4CC5(CCCN(C(=O)CCc6ccc7c(c6)n(C)c(=O)n7C6CCC(=O)NC6=O)C5)C4)CC3)nc21` (stereo not drawn) [Compound 57], at CDK9 (6 h), the Dmax was 15%. Also, the “CDK2 HIBIT Protein Quantification Maximum” value on CDK2 is 53%. For the same compound, at CCNE1, the “CCNE1 HIBIT Protein Quantification Maximum” value is 22%.

Values taken from US20260070917A1, “CYCLIN DEPENDENT KINASE DEGRADERS AND METHODS OF USE THEREOF” (Differentiated Therapeutics Inc, priority 2023, published 2026).
